Assay results published in ChEMBL document CHEMBL1671651, “Azithromycin in Pseudomonas aeruginosa biofilms: bactericidal activity and selection of nfxB mutants” (2009).
≈ marks a conversion by molar mass, not a printed value.

Key:
Type in all cases: functional
Pseudomonas aeruginosa [1] = experiment: Antimicrobial activity against Pseudomonas aeruginosa PAO1 biofilm by Etest method
Pseudomonas aeruginosa [2] = experiment: Antimicrobial activity against mutS::lox-deficient Pseudomonas aeruginosa PAOMS biofilm by Etest method
Pseudomonas aeruginosa [3] = experiment: Antimicrobial activity against mucA::lox-deficient Pseudomonas aeruginosa PAOMA biofilm by Etest method
Pseudomonas aeruginosa [4] = experiment: Antimicrobial activity against mucA::lox, mutS::lox-deficient Pseudomonas aeruginosa PAOMSA biofilm by Etest method
Pseudomonas aeruginosa [5] = experiment: Antimicrobial activity against nfxB gene-deficient Pseudomonas aeruginosa PAONB biofilm by Etest method
Pseudomonas aeruginosa [6] = experiment: Antimicrobial activity against mutS::lox,nfxB gene-deficient Pseudomonas aeruginosa PAOMSNB biofilm by Etest method
Pseudomonas aeruginosa [7] = experiment: Antimicrobial activity against mexD::lox-deficient Pseudomonas aeruginosa PAOMxD biofilm by Etest method
Pseudomonas aeruginosa [8] = experiment: Antimicrobial activity against mutS::lox,mexD::lox-deficient Pseudomonas aeruginosa PAOMSMxD biofilm by Etest method
Pseudomonas aeruginosa [9] = experiment: Antimicrobial activity against Pseudomonas aeruginosa PAO1 A biofilm harboring duplication mutation at nucleotide 333 in nfxB gene selected at 0.5 ug/ml of azithromycin by Etest method
Pseudomonas aeruginosa [10] = experiment: Antimicrobial activity against Pseudomonas aeruginosa PAO1 A biofilm harboring deletion mutation at nucleotide 231-244 in nfxB gene selected at 1 ug/ml of azithromycin after 4 passages by Etest method
Pseudomonas aeruginosa [11] = experiment: Antimicrobial activity against Pseudomonas aeruginosa PAO1 A biofilm harboring nfxB T248C mutant gene selected at 4 ug/ml of azithromycin after 4 passages by Etest method
Pseudomonas aeruginosa [12] = experiment: Antimicrobial activity against mucA::lox-deficient Pseudomonas aeruginosa PAOMAB biofilm harboring nfxB G125T mutant gene selected at 0.5 ug/ml of azithromycin after 1 passages by Etest method
Pseudomonas aeruginosa [13] = experiment: Antimicrobial activity against mucA::lox-deficient Pseudomonas aeruginosa PAOMAA biofilm harboring nfxB C25T mutant gene selected at 1 ug/ml of azithromycin after 2 passages by Etest method
Pseudomonas aeruginosa [14] = experiment: Antimicrobial activity against mutS::lox-deficient Pseudomonas aeruginosa PAOMSB biofilm harboring nfxB T380C mutant gene selected at 0.5 ug/ml of azithromycin after 2 passages by Etest method
Pseudomonas aeruginosa [15] = experiment: Antimicrobial activity against mutS::lox-deficient Pseudomonas aeruginosa PAOMSA biofilm harboring nfxB C116T mutant gene selected at 1 ug/ml of azithromycin after 1 passages by Etest method
Pseudomonas aeruginosa [16] = experiment: Antimicrobial activity against mutS::lox-deficient Pseudomonas aeruginosa PAOMSA biofilm harboring nfxB T533C mutant gene selected at 4 ug/ml of azithromycin after 2 passages by Etest method
Pseudomonas aeruginosa [17] = experiment: Antimicrobial activity against mutS::lox-deficient Pseudomonas aeruginosa PAOMSB biofilm harboring deletion od C534 in nfxB mutant gene selected at 4 ug/ml of azithromycin after 2 passages by Etest method
Pseudomonas aeruginosa [18] = experiment: Antimicrobial activity against mutS::lox-deficient Pseudomonas aeruginosa PAOMSA biofilm harboring nfxB T86C mutant gene selected at 4 ug/ml of azithromycin after 3 passages by Etest method
Pseudomonas aeruginosa [19] = experiment: Antimicrobial activity against mutS::lox-deficient Pseudomonas aeruginosa PAOMSB biofilm harboring nfxB T41C mutant gene selected at 4 ug/ml of azithromycin after 3 passages by Etest method
Pseudomonas aeruginosa [20] = experiment: Antimicrobial activity against mutS::lox-deficient Pseudomonas aeruginosa PAOMSA biofilm harboring nfxB T86C mutant gene selected at 4 ug/ml of azithromycin after 4 passages by Etest method
Pseudomonas aeruginosa [21] = experiment: Antimicrobial activity against mutS::lox-deficient Pseudomonas aeruginosa PAOMSB biofilm harboring nfxB T562C mutant gene selected at 4 ug/ml of azithromycin after 4 passages by Etest method
Pseudomonas aeruginosa [22] = experiment: Antimicrobial activity against mutS::lox-deficient Pseudomonas aeruginosa PAOMSA biofilm harboring nfxB G461A mutant gene selected at 4 ug/ml of azithromycin after 5 passages by Etest method
Pseudomonas aeruginosa [23] = experiment: Antimicrobial activity against mutS::lox-deficient Pseudomonas aeruginosa PAOMSB biofilm harboring nfxB C116T mutant gene selected at 4 ug/ml of azithromycin after 5 passages by Etest method
Pseudomonas aeruginosa [24] = experiment: Antimicrobial activity against mutS::lox-deficient Pseudomonas aeruginosa PAOMSA biofilm harboring nfxB G539A mutant gene selected at 4 ug/ml of azithromycin after 6 passages by Etest method
Pseudomonas aeruginosa [25] = experiment: Antimicrobial activity against mutS::lox-deficient Pseudomonas aeruginosa PAOMSB biofilm harboring nfxB T77C mutant gene selected at 4 ug/ml of azithromycin after 6 passages by Etest method
Pseudomonas aeruginosa [26] = experiment: Antimicrobial activity against mucA::lox, mutS::lox-deficient Pseudomonas aeruginosa PAOMSAA biofilm harboring nfxB C89T mutant gene selected at 0.5 ug/ml of azithromycin after 3 passages by Etest method
Pseudomonas aeruginosa [27] = experiment: Antimicrobial activity against mucA::lox, mutS::lox-deficient Pseudomonas aeruginosa PAOMSAB biofilm harboring nfxB C25T mutant gene selected at 1 ug/ml of azithromycin after 2 passages by Etest method
Pseudomonas aeruginosa [28] = experiment: Antimicrobial activity against mucA::lox, mutS::lox-deficient Pseudomonas aeruginosa PAOMSAB biofilm harboring nfxB T544C mutant gene selected at 4 ug/ml of azithromycin after 1 passages by Etest method
Pseudomonas aeruginosa [29] = experiment: Antimicrobial activity against mucA::lox, mutS::lox-deficient Pseudomonas aeruginosa PAOMSAA biofilm harboring nfxB T86C mutant gene selected at 4 ug/ml of azithromycin after 2 passages by Etest method
Pseudomonas aeruginosa [30] = experiment: Antimicrobial activity against mucA::lox, mutS::lox-deficient Pseudomonas aeruginosa PAOMSAB biofilm harboring nfxB T86C mutant gene selected at 4 ug/ml of azithromycin after 2 passages by Etest method
Pseudomonas aeruginosa [31] = experiment: Antimicrobial activity against mucA::lox, mutS::lox-deficient Pseudomonas aeruginosa PAOMSAA biofilm harboring nfxB T77C mutant gene selected at 4 ug/ml of azithromycin after 3 passages by Etest method
Pseudomonas aeruginosa [32] = experiment: Antimicrobial activity against mucA::lox, mutS::lox-deficient Pseudomonas aeruginosa PAOMSAA biofilm harboring nfxB C89T mutant gene selected at 4 ug/ml of azithromycin after 6 passages by Etest method
Pseudomonas aeruginosa [33] = experiment: Antimicrobial activity against mucA::lox, mutS::lox-deficient Pseudomonas aeruginosa PAOMSAB biofilm harboring nfxB C89T mutant gene selected at 4 ug/ml of azithromycin after 6 passages by Etest method

Compound	MIC (Pseudomonas aeruginosa [1])	MIC (Pseudomonas aeruginosa [2])	MIC (Pseudomonas aeruginosa [5])	MIC (Pseudomonas aeruginosa [6])	MIC (Pseudomonas aeruginosa [8])	MIC (Pseudomonas aeruginosa [9])	MIC (Pseudomonas aeruginosa [10])	MIC (Pseudomonas aeruginosa [12])	MIC (Pseudomonas aeruginosa [14])	MIC (Pseudomonas aeruginosa [15])	MIC (Pseudomonas aeruginosa [20])	MIC (Pseudomonas aeruginosa [21])	MIC (Pseudomonas aeruginosa [23])	MIC (Pseudomonas aeruginosa [24])	MIC (Pseudomonas aeruginosa [26])	MIC (Pseudomonas aeruginosa [27])	MIC (Pseudomonas aeruginosa [29])	MIC (Pseudomonas aeruginosa [30])	MIC (Pseudomonas aeruginosa [31])	MIC (Pseudomonas aeruginosa [32])	also measured
C[C@H]1[C@H](NC(=O)/C(=N\OC(C)(C)C(=O)O)c2csc(N)n2)C(=O)N1S(=O)(=O)O [AZTREONAM]	2 µg/mL (≈ 4.59 µM)	2 µg/mL (≈ 4.59 µM)	0.5 µg/mL (≈ 1.15 µM)	1 µg/mL (≈ 2.3 µM)	2 µg/mL (≈ 4.59 µM)	0.75 µg/mL	0.5 µg/mL	0.5 µg/mL	0.75 µg/mL	2 µg/mL	0.75 µg/mL	1.5 µg/mL	0.75 µg/mL	0.75 µg/mL	1 µg/mL	0.75 µg/mL	1 µg/mL	1 µg/mL	2 µg/mL	1 µg/mL	MIC (Pseudomonas aeruginosa [3]): 2 µg/mL (≈ 4.59 µM); MIC (Pseudomonas aeruginosa [4]): 2 µg/mL (≈ 4.59 µM); MIC (Pseudomonas aeruginosa [7]): 2 µg/mL (≈ 4.59 µM); MIC (Pseudomonas aeruginosa [11]): 0.75 µg/mL; MIC (Pseudomonas aeruginosa [13]): 0.75 µg/mL; MIC (Pseudomonas aeruginosa [16]): 0.75 µg/mL; MIC (Pseudomonas aeruginosa [17]): 2 µg/mL; MIC (Pseudomonas aeruginosa [18]): 1 µg/mL; MIC (Pseudomonas aeruginosa [19]): 2 µg/mL; MIC (Pseudomonas aeruginosa [22]): 2 µg/mL; MIC (Pseudomonas aeruginosa [25]): 1 µg/mL; MIC (Pseudomonas aeruginosa [28]): 2 µg/mL; MIC (Pseudomonas aeruginosa [33]): 1 µg/mL
CO/N=C(\C(=O)N[C@@H]1C(=O)N2C(C(=O)[O-])=C(C[N+]3(C)CCCC3)CS[C@H]12)c1csc(N)n1 [CEFEPIME]	1.5 µg/mL (≈ 3.12 µM)	1.5 µg/mL (≈ 3.12 µM)	8 µg/mL (≈ 16.6 µM)	8 µg/mL (≈ 16.6 µM)	1.5 µg/mL (≈ 3.12 µM)	12 µg/mL	12 µg/mL	12 µg/mL	12 µg/mL	12 µg/mL	6 µg/mL	6 µg/mL	12 µg/mL	12 µg/mL	12 µg/mL	8 µg/mL	16 µg/mL	12 µg/mL	12 µg/mL	16 µg/mL	MIC (Pseudomonas aeruginosa [3]): 1.5 µg/mL (≈ 3.12 µM); MIC (Pseudomonas aeruginosa [4]): 1.5 µg/mL (≈ 3.12 µM); MIC (Pseudomonas aeruginosa [7]): 1.5 µg/mL (≈ 3.12 µM); MIC (Pseudomonas aeruginosa [11]): 12 µg/mL; MIC (Pseudomonas aeruginosa [13]): 12 µg/mL; MIC (Pseudomonas aeruginosa [16]): 8 µg/mL; MIC (Pseudomonas aeruginosa [17]): 12 µg/mL; MIC (Pseudomonas aeruginosa [18]): 16 µg/mL; MIC (Pseudomonas aeruginosa [19]): 8 µg/mL; MIC (Pseudomonas aeruginosa [22]): 8 µg/mL; MIC (Pseudomonas aeruginosa [25]): 12 µg/mL; MIC (Pseudomonas aeruginosa [28]): 12 µg/mL; MIC (Pseudomonas aeruginosa [33]): 16 µg/mL
CC(C)(O/N=C(\C(=O)N[C@@H]1C(=O)N2C(C(=O)[O-])=C(C[n+]3ccccc3)CS[C@H]12)c1csc(N)n1)C(=O)O [CEFTAZIDIME]	1.5 µg/mL (≈ 2.74 µM)	1.5 µg/mL (≈ 2.74 µM)	1.5 µg/mL (≈ 2.74 µM)	1.5 µg/mL (≈ 2.74 µM)	1.5 µg/mL (≈ 2.74 µM)	1.5 µg/mL	1 µg/mL	0.5 µg/mL	1 µg/mL	1 µg/mL	1.5 µg/mL	1.5 µg/mL	1.5 µg/mL	1.5 µg/mL	1.5 µg/mL	1 µg/mL	1.5 µg/mL	2 µg/mL	2 µg/mL	1.5 µg/mL	MIC (Pseudomonas aeruginosa [3]): 1.5 µg/mL (≈ 2.74 µM); MIC (Pseudomonas aeruginosa [4]): 1.5 µg/mL (≈ 2.74 µM); MIC (Pseudomonas aeruginosa [7]): 1.5 µg/mL (≈ 2.74 µM); MIC (Pseudomonas aeruginosa [11]): 1.5 µg/mL; MIC (Pseudomonas aeruginosa [13]): 1 µg/mL; MIC (Pseudomonas aeruginosa [16]): 1.5 µg/mL; MIC (Pseudomonas aeruginosa [17]): 2 µg/mL; MIC (Pseudomonas aeruginosa [18]): 2 µg/mL; MIC (Pseudomonas aeruginosa [19]): 2 µg/mL; MIC (Pseudomonas aeruginosa [22]): 2 µg/mL; MIC (Pseudomonas aeruginosa [25]): 2 µg/mL; MIC (Pseudomonas aeruginosa [28]): 2 µg/mL; MIC (Pseudomonas aeruginosa [33]): 1.5 µg/mL
O=C(O)c1cn(C2CC2)c2cc(N3CCNCC3)c(F)cc2c1=O [CIPROFLOXACIN]	–	–	1 µg/mL (≈ 3.02 µM)	1 µg/mL (≈ 3.02 µM)	0.094 µg/mL (≈ 0.284 µM)	3 µg/mL	3 µg/mL	3 µg/mL	4 µg/mL	4 µg/mL	1 µg/mL	0.75 µg/mL	1.5 µg/mL	1 µg/mL	3 µg/mL	3 µg/mL	3 µg/mL	3 µg/mL	3 µg/mL	3 µg/mL	–
